Measured values taken from paper PMC7432809, “Antimicrobial Activity of Small Synthetic Peptides Based on the Marine Peptide Turgencin A: Prediction of Antimicrobial Peptide Sequences in a Natural Peptide and Strategy for Optimization of Potency” (International Journal of Molecular Sciences, 2020).
Values after ≈ are worked out from the molar mass of the structure shown. Where no end group is shown, it is not given here.

Key:
Test in all cases: microbe, parasite or virus in culture
Format in all cases: cell-based
[1] = tested on: Escherichia coli (ATCC 25922)
Method: (§1) Two strains of G- bacteria, P. aeruginosa (Pa, ATCC 27853) and E. coli (Ec, ATCC 25922), were also used. Cultures stored at -80 °C in glycerol were transferred to Müller–Hinton plates (MH, Difco Laboratories, Detroit, MI, USA) and incubated for 24 h at 35 °C. Colonies of each strain were transferred to 5 mL liquid MH medium and left shaking (600 rpm) at room temperature overnight. An aliquot of actively growing bacteria (20 µL) was inoculated in 5 mL MH medium and left shaking for 2 h at room temperature. In order to have a sensitive bioassay, the bacterial cultures were diluted with medium to only 2.5–3 × 10^4 bacteria/mL and an aliquot of 50 µL was added to each well in 96 microwell plates (Thermo Fisher Scientific, Roskilde, Denmark) preloaded with peptide solution (50 µL). The antibacterial assays were performed as previously described. The microtiter plates were incubated for 24 h at 35 °C with optical density (595 nm) recorded every hour using an Envision 2103 multilabel reader, controlled by a Wallac Envision manager (PerkinElmer, Waltham, MA, USA). The minimum inhibitory concentration (MIC) was defined as the sample concentration showing an optical density less than 10% of the negative (growth) control, consisting of bacteria and MQ-H2O. Oxytetracycline (concentrations ranging from 20–0.02 µg/mL, Sigma-Aldrich) and indolicidin (concentration ranging from 200–0.2 µg/mL, Sigma-Aldrich) served as a positive (inhibition) control. The synthetic peptides were tested for antibacterial activity in concentrations ranging from 250 to 0.5 µg/mL in two-fold dilutions. All tests were performed in triplicates.

[2] = tested on: Pseudomonas aeruginosa (ATCC 27853)
Method: as §1

Aureobasidium pullulans = tested on: Aureobasidium pullulans
Method: (§2) StAMP-1–11 were screened for antifungal activity against C. albicans (Ca, ATCC 10231), A. pullulans (Ap) and Rhodotorula sp. (Rh) (the last two were obtained from professor Arne Tronsmo, The Norwegian University of Life Sciences, Ås, Norway). The antifungal assay was performed as previously described with a few modifications. Briefly, fungal spores were dissolved in potato dextrose broth (Difco Laboratories) with 2% D(+)-glucose (Merck, Darmstadt, Germany) to a concentration of 4 × 10^5 spores/mL. The spores (50 µL) were inoculated on 96 microwell plates (Thermo Fisher Scientific) containing the synthetic peptides (50 µL) and controls (water or antibiotic). The peptides were diluted in MQ-H2O at final concentrations ranging from 250–3.9 µg/mL in two-fold serial dilutions. Triclosan (Sigma-Aldrich, Steinheim, Germany) was used as a positive (antifungal) control (32–0.25 µg/mL), and MQ-H2O as a negative (growth) control. Cultures were grown in room temperature for 24 h (Ca) and 48 h (Ap and Rh). Growth inhibition was determined by measuring OD values at 600 nm by a microplate reader (Synergy H1 Hybrid Multi-Mode Reader, BioTek, Winooski, VT, USA). […] All experiments were done in triplicate.

[3] = tested on: Candida albicans (ATCC 10231)
Method: as §2

Rhodotorula sp. = tested on: Rhodotorula sp.
Method: as §2

[4] = tested on: Corynebacterium glutamicum (ATCC 13032)
Method: (§3) The synthesized peptides were screened for antibacterial activity against five strains of G+ bacteria: B. subtilis (Bs, ATCC 23857), C. glutamicum (Cg, ATCC 13032), S. aureus (Sa, ATCC 9144), Micrococcus luteus (Ml), B. megaterium (Bm) (the last two were obtained from professor Olaf B. Styrvold, UiT The Arctic University of Norway).
as §1

[5] = tested on: Bacillus subtilis (ATCC 23857)
Method: as §3, §1

Micrococcus luteus = tested on: Micrococcus luteus
Method: as §3, §1

[6] = tested on: Staphylococcus aureus (ATCC 9144)
Method: as §3, §1

Bacillus megaterium = tested on: Bacillus megaterium
Method: as §3, §1

[7] = potato dextrose broth with 2% glucose, room temperature 48 h, OD 600 nm, >90% inhibition, triplicate

Row | Antimicrobial Activity (MIC) Ec ([1]; ATCC 25922, 24 h) [µg/mL] | Antimicrobial Activity (MIC) Pa ([2]; ATCC 27853, 24 h) [µg/mL] | Antimicrobial Activity (MIC) Ap (Aureobasidium pullulans; 48 h) [µg/mL] | Antimicrobial Activity (MIC) Ca ([3]; ATCC 10231, 24 h) [µg/mL] | Antimicrobial Activity (MIC) Rh (Rhodotorula sp.; 48 h) [µg/mL] | Antimicrobial Activity (MIC) Cg ([4]; ATCC 13032, 24 h) [µg/mL] | Antimicrobial Activity (MIC) Bs ([5]; ATCC 23857, 24 h) [µg/mL] | Antimicrobial Activity (MIC) Ml (Micrococcus luteus; 24 h) [µg/mL] | Antimicrobial Activity (MIC) Sa ([6]; ATCC 9144, 24 h) [µg/mL] | Antimicrobial Activity (MIC) Bm (Bacillus megaterium; Bacillus, 24 h) [µg/mL] | Compound | also measured
1 |  |  |  |  |  |  |  |  |  |  | CC[C@H](C)[C@H](N)C(=O)N[C@@H](CC(C)C)C(=O)N1CCC[C@H]1C(=O)N[C@@H](Cc1c[nH]c2ccccc12)C(=O)N[C@@H](CCCCN)C(=O)N[C@@H](Cc1c[nH]c2ccccc12)C(=O)N1CCC[C@H]1C(=O)N[C@@H](Cc1c[nH]c2ccccc12)C(=O)N[C@@H](Cc1c[nH]c2ccccc12)C(=O)N1CCC[C@H]1C(=O)N[C@@H](Cc1c[nH]c2ccccc12)C(=O)N[C@@H](CCCNC(=N)N)C(=O)N[C@@H](CCCNC(=N)N)C(N)=O [Indolicidin, reference compound] | Antimicrobial Activity (MIC) Ec ([1]; Escherichia coli, MH medium, 24 h at 35 °C, OD 595 nm <10% of growth control, triplicates): 25.0 µg/mL; Antimicrobial Activity (MIC) Pa ([2]; Pseudomonas aeruginosa, MH medium, 24 h at 35 °C, OD 595 nm <10% of growth control, triplicates): >250 µg/mL; Antimicrobial Activity (MIC) Ap (Aureobasidium pullulans; [7]): 25.0 µg/mL; Antimicrobial Activity (MIC) Ca ([3]; potato dextrose broth with 2% glucose, room temperature 24 h, OD 600 nm, >90% inhibition, triplicate): 100 µg/mL; Antimicrobial Activity (MIC) Rh (Rhodotorula sp.; [7]): 25.0 µg/mL; Antimicrobial Activity (MIC) Cg ([4]; Corynebacterium glutamicum, MH medium, 24 h at 35 °C, OD 595 nm <10% of growth control, triplicates): 1.6 µg/mL; Antimicrobial Activity (MIC) Bs ([5]; Bacillus subtilis, MH medium, 24 h at 35 °C, OD 595 nm <10% of growth control, triplicates): 6.3 µg/mL; Antimicrobial Activity (MIC) Ml (Micrococcus luteus; Micrococcus luteus, MH medium, 24 h at 35 °C, OD 595 nm <10% of growth control, triplicates): 12.5 µg/mL; Antimicrobial Activity (MIC) Sa ([6]; Staphylococcus aureus, MH medium, 24 h at 35 °C, OD 595 nm <10% of growth control, triplicates): 12.5 µg/mL; Antimicrobial Activity (MIC) Bm (Bacillus megaterium; Bacillus megaterium, MH medium, 24 h at 35 °C, OD 595 nm <10% of growth control, triplicates): 3.1 µg/mL
2 |  |  |  |  |  |  |  |  |  |  | CN(C)[C@@H]1C(O)=C(C(N)=O)C(=O)[C@@]2(O)C(O)=C3C(=O)c4c(O)cccc4[C@@](C)(O)[C@H]3[C@H](O)[C@@H]12 [Oxytetracycline, reference compound] | MIC ([1]; ATCC25922, Escherichia coli, MH medium, 24 h at 35 °C, OD 595 nm <10% of growth control, triplicates, read-out: Antimicrobial Activity (MIC) Ec): 1.3 µg/mL (≈ 2.82 µM); MIC ([2]; ATCC27853, Pseudomonas aeruginosa, MH medium, 24 h at 35 °C, OD 595 nm <10% of growth control, triplicates, read-out: Antimicrobial Activity (MIC) Pa): 2.5 µg/mL (≈ 5.43 µM); MIC ([4]; ATCC13032, Corynebacterium glutamicum, MH medium, 24 h at 35 °C, OD 595 nm <10% of growth control, triplicates, read-out: Antimicrobial Activity (MIC) Cg): 0.2 µg/mL (≈ 0.434 µM); MIC ([5]; ATCC23857, Bacillus subtilis, MH medium, 24 h at 35 °C, OD 595 nm <10% of growth control, triplicates, read-out: Antimicrobial Activity (MIC) Bs): 10 µg/mL (≈ 21.7 µM); MIC (Micrococcus luteus; Micrococcus luteus, MH medium, 24 h at 35 °C, OD 595 nm <10% of growth control, triplicates, read-out: Antimicrobial Activity (MIC) Ml): 1.3 µg/mL (≈ 2.82 µM); MIC ([6]; ATCC9144, Staphylococcus aureus, MH medium, 24 h at 35 °C, OD 595 nm <10% of growth control, triplicates, read-out: Antimicrobial Activity (MIC) Sa): 0.04 µg/mL (≈ 0.0869 µM); MIC (Bacillus megaterium; Priestia megaterium, Bacillus megaterium, MH medium, 24 h at 35 °C, OD 595 nm <10% of growth control, triplicates, read-out: Antimicrobial Activity (MIC) Bm): 0.6 µg/mL (≈ 1.3 µM)
3 |  |  |  |  |  |  |  |  |  |  | Oc1cc(Cl)ccc1Oc1ccc(Cl)cc1Cl [Triclosan, reference compound] | MIC (Aureobasidium pullulans; Aureobasidium pullulans, 48 h, read-out: Antimicrobial Activity (MIC) Ap): 3.1 µg/mL; MIC ([3]; Candida albicans, ATCC10231, 24 h, read-out: Antimicrobial Activity (MIC) Ca): 3.1 µg/mL; MIC (Rhodotorula sp.; Rhodotorula, 48 h, read-out: Antimicrobial Activity (MIC) Rh): 1.6 µg/mL
4 | >250 | >250 | >250 | >250 | >250 | 250 | >250 | >250 | >250 | 250 | GKKPGGWKAK-NH2 [StAMP-1] | 
5 | >250 | >250 | 62.5 | 62.5 | 31.3 | 3.9 | 125 | 125 | >250 | 3.9 | GKKPGWWKAK-NH2 [StAMP-4] | 
6 | >250 | >250 | 62.5 | 125 | 62.5 | 15.6 | >250 | 250 | >250 | 3.9 | GKKPWGWKAK-NH2 [StAMP-3] | 
7 | >250 | >250 | 62.5 | 125 | 62.5 | 31.3 | 125 | 250 | >250 | 3.9 | GKKWGGWKAK-NH2 [StAMP-2] | 
8 | 62.5 | >250 | 62.5 | 62.5 | 31.3 | 3.9 | 3.9 | 62.5 | 250 | 1.0 | GKKWGWWKAK-NH2 [StAMP-6] | 
9 | 31.3 | 250 | 31.3 | 31.3 | 15.6 | 2.0 | 15.6 | 15.6 | >250 | 1.0 | GKKWWGWKAK-NH2 [StAMP-5] | 
10 | >250 | >250 | 250 | 125 | 31.3 | 31.3 | >250 | 62.5 | >250 | 7.8 | GRRPLLLRAR-NH2 [StAMP-11] | 
11 | 15.6 | 31.3 | 62.5 | 62.5 | 15.6 | 7.8 | 7.8 | 15.6 | 62.5 | 3.9 | GRRWWWWRAR-NH2 [StAMP-10] | 
